Ratio and IC50 data for five molecules are collected here from ChEMBL document CHEMBL1130963, “Design and construction of novel thrombin inhibitors featuring P3-P4 quaternary lactam dipeptide surrogates” (Bioorg Med Chem Lett, 1998).

Experiment [1] in a line: Ratio of thrombolytic enzyme plasmin to thrombin (FIIa) was evaluated.
Another experiment addresses Prothrombin (Homo sapiens, UniProt P00734). As to the kind of experiment: In vitro inhibitory activity was evaluated against thrombin (FIIa).
The target in experiment [2] is T1, Plasminogen (Homo sapiens, UniProt P00747). As to the kind of experiment: In vitro inhibitory activity was evaluated against thrombolytic enzyme plasmin.
T1 sequence (P00747 97-580 limits assumed): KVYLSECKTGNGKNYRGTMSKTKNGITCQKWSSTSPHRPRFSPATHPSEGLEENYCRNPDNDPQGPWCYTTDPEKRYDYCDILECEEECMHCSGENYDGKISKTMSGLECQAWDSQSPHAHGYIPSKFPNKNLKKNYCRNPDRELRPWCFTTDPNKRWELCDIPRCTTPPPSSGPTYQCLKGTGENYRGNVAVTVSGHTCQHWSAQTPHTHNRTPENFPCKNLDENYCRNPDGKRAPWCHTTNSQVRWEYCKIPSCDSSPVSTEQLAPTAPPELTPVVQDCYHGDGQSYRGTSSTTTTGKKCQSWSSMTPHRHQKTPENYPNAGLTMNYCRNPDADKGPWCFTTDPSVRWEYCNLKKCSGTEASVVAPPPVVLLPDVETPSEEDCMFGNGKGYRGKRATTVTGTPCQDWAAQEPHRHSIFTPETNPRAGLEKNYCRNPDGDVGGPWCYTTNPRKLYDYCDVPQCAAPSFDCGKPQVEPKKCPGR
T1 sequence (P00747 581-810 limits assumed): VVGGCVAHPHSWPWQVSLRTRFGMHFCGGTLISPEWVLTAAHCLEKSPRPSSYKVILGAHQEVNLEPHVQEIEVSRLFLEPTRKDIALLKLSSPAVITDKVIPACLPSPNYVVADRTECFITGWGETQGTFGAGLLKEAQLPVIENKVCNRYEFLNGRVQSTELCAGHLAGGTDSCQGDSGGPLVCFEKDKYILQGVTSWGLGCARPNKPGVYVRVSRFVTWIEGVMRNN
In experiment [3] the target is T2, Coagulation factor X (Homo sapiens, UniProt P00742).
T2 sequence (P00742 41-179 limits assumed): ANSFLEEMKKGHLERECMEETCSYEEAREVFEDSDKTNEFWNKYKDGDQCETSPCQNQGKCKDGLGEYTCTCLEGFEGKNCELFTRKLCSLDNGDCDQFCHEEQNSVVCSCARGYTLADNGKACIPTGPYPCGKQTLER
T2 sequence (P00742 235-488 limits assumed): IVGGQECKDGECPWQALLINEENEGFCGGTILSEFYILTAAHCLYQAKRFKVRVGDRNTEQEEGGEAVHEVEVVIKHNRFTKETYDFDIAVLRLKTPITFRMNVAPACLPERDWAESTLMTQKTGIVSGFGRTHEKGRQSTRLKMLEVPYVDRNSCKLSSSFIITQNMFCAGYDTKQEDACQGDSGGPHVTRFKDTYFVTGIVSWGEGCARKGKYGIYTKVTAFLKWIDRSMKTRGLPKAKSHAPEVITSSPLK
A further experiment concerns the target Serine protease 1 (Homo sapiens, UniProt P07477).
For experiment [4], the target named is T1, Plasminogen. The experiment in a line: In vitro inhibitory activity was evaluated against thrombolytic enzyme plasmin; Inactive.
Experiment [5] deals with T2, Coagulation factor X. The experiment in a line: In vitro inhibitory activity was evaluated against thrombin factor Xa (FXa); Inactive.
A short description of experiment [6]: Ratio of thrombin factor Xa (FXa) to thrombin (FIIa) was evaluated; Very high.

Sequence of Serine protease 1 (P07477 whole entry): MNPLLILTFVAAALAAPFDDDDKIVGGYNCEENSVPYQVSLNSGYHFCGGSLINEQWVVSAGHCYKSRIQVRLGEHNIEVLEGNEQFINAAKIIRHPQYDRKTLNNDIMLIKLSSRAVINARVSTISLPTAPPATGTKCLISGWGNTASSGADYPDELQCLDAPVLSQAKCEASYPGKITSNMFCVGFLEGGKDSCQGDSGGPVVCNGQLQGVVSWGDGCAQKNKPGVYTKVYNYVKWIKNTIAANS

What is called IC50 is the point on the concentration scale where inhibition reaches its midpoint. Higher therefore signals a need for much substance. Consider `CCOC(=O)[C@]1(NS(=O)(=O)Cc2ccccc2)CCCN(CC(=O)N[C@H]2CCCN(C(=N)N)[C@H]2O)C1=O`, for which, in experiment [1], the Ratio was 3.1. Besides, the IC50 on Prothrombin was 64.4 nM; against Plasminogen [2] it was more than 2500 nM; against Coagulation factor X [3], 43.2 nM; on Serine protease 1, 202 nM.

Regarding `CCOC(=O)[C@]1(NS(=O)(=O)Cc2ccccc2)CCCN(CC(=O)N[C@H]2CCCN(C(=N)N)[C@@H]2O)C1=O`, in experiment [1], the Ratio turned out to be 1.8. Moreover, the IC50 against Prothrombin worked out at 1.1 nM; on Plasminogen [2], 271 nM; on Coagulation factor X [3] it was 5.78 nM; against Serine protease 1, 2 nM.

Regarding `N=C(N)N1CCC[C@H](NC(=O)CN2CCC[C@@](N)(Cc3ccccc3)C2=O)[C@@H]1O`, the Ratio in experiment [1] is 18.2. The IC50 entry against Plasminogen [4] is “Not Active”; at Prothrombin, 138 nM; against Coagulation factor X [5], “Not Active”; on Serine protease 1, 2500 nM.

Take `N=C(N)N1CCC[C@H](NC(=O)CN2CCC[C@@](N)(Cc3ccccc3)C2=O)[C@H]1O`: the results for the Ratio in experiment [1] and in experiment [6] were 67.1 and “Very high”, respectively. Besides, the IC50 entry was “Not Active” on Plasminogen [4], 2.07 nM against Prothrombin, “Not Active” at Coagulation factor X [5] and 139 nM at Serine protease 1.

Turning to `N=C(N)N1CCC[C@H](NC(=O)CN2CCC[C@H](NS(=O)(=O)Cc3ccccc3)C2=O)C1O` (stereo partly drawn), the Ratio in experiment [1] is 128. This molecule also came in with a 50% inhibitory concentration (IC50) on Plasminogen [2] of more than 2500 nM.
